From US8975265B2, “Substituted imidazo[1,2-a]pyrimidines and —pyridines” (Bayer Intellectual Property GmbH, priority 2010, dated 2015) come the findings set out here.

One may read the IC50 as the midpoint of a concentration-inhibition curve.

Like-named read-outs stand apart in the source and are kept apart here.

In experiment [1] the test system is p-AKT1/2/3-S473 in KPL4 breast tumour cell line. In words: Cellular p-AKT1/2/3-S473 assay. The experiment is classed as cell-based. The conditions noted are these: read-out: pAKT-S743 median IC50. The method, then: The molecular mechanism of action was investigated in a set of experiments to assess the inhibition of the PI3K-AKT-mTOR pathway in responsive cell lines such as KPL4 breast tumour cell line (PIK3CAH1047R, HER20/E and hormone independent). The phospho-substrates of PI3K-AKT-mTOR axis were used as the read-outs to reflect pathway inhibition. Cells were seeded at 60-80% confluency per well in 96-well cell culture plates. After overnight incubation at 37° C. 5% CO2, cells were treated with compounds and vehicle at 37° C. for 2 hours. […] All measurements where at least done in duplicates and confirmed by independent repetition.
Alternatively pAKT-S473 was measured using the “Akt Duplex” of the MULTI-SPOT® Assay System (Fa. Meso Scale Discovery, Cat# N41100B-1) following manufacturers instructions. Each assay used 20 μg of protein extract and measured total AKT and p-AKT content simultaneously in one well. All measurements where at least done in duplicates and confirmed by independent repetition. Values for P-AKT are expressed as percentage of P-AKT level compared to total-AKT content of the extracts.

Experiment [2] deals with KPL-4 breast cancer cell line. In words: Tumor cell proliferation assay (CellTiter-Glo, 72 h), KPL-4. The experiment is classed as cell-based. The method, then: Biological Assay 4.0: Tumor Cell Proliferation Assays
Compounds were tested in a cell-based assay that measures the capacity of the compounds to inhibit tumour cell proliferation following a 72h drug exposure. Cell viability is determined using CellTiter-Glow® (CTG, Promega, cat# G7571/2/3). The CellTiter-Glo® Luminescent Cell Viability Assay is a homogeneous method to determine the number of viable cells in culture. Detection is based on using the luciferase reaction to measure the amount of ATP from viable cells. The amount of ATP in cells correlates with cell viability. Within minutes after a loss of membrane integrity, cells lose the ability to synthesize ATP, and endogenous ATPases destroy any remaining ATP; thus the levels of ATP fall precipitously.
For each cell line assayed, cells were plated onto a separate plate for determination of […] at t=0 hour and t=72 hour time points. Following overnight incubation at 37° C., chemiluminescence values for the t=0 samples were determined after adding 10 μl medium and 100 μl CTG solution according to manufacture protocol. Plates for the t=72 hour time points were treated with compounds diluted into growth medium at ten times final concentration added in 10 μL to the cell culture plate. Cells were then incubated for 72 hours at 37° C. Chemiluminescence values for the t=72 hour samples were determined. […] Experiments were controlled using a reference compound as standard.
For orientation: Cellular ATP, detected with luciferase, serves as a proxy for viable cell number.

Experiment [3] has as its target His-tagged human recombinant kinase full-length Akt1 (Homo sapiens (Human), UniProt P31749). In words: Akt1 kinase assay (TR-FRET). The format is biochemical. The conditions noted are these: 10 μM ATP; read-out: Akt1, median IC50. The method, then:
Biological Assay 1.0: Akt1 Kinase Assay
Akt1 inhibitory activity of compounds of the present invention was quantified employing the Akt1 TR-FRET assay as described in the following paragraphs.
As substrate for the kinase reaction the biotinylated peptide biotin-Ahx-[…] (C-terminus in amide form) was used which can be purchased e.g. from the company Biosynthan GmbH (Berlin-Buch, Germany).
For the assay 50 nl of a 100 fold concentrated solution of the test compound in DMSO was pipetted into a black low volume 384 well microtiter plate (Greiner Bio-One, Frickenhausen, Germany), 2 μl of a solution of Akt1 in assay buffer [50 mM TRIS/HCl pH 7.5, 5 mM MgCl2, 1 mM dithiothreitol, 0.02% (v/v) Triton X-100 (Sigma)] were added and the mixture was incubated for 15 min at 22° C. to allow prebinding of the test compounds to the enzyme before the start of the kinase reaction. […] The concentration of Akt1 in the assay was adjusted depending of the activity of the enzyme lot and was chosen appropriate to have the assay in the linear range, typical enzyme concentrations were in the range of about 0.05 ng/μl (final conc. in the 5 μl assay volume).
The resulting mixture was incubated 1 h at 22° C. to allow the binding of the biotinylated phosphorylated peptide to the streptavidine-XL665 and the antibodies. Subsequently the amount of phosphorylated substrate was evaluated by measurement of the resonance energy transfer from the anti-mouse-IgG-Eu-Chelate to the streptavidine-XL665.

[4] abbreviates: KPL4 breast tumour cell line, 2 hours treatment.

Sequence of His-tagged human recombinant kinase full-length Akt1 (P31749 whole entry): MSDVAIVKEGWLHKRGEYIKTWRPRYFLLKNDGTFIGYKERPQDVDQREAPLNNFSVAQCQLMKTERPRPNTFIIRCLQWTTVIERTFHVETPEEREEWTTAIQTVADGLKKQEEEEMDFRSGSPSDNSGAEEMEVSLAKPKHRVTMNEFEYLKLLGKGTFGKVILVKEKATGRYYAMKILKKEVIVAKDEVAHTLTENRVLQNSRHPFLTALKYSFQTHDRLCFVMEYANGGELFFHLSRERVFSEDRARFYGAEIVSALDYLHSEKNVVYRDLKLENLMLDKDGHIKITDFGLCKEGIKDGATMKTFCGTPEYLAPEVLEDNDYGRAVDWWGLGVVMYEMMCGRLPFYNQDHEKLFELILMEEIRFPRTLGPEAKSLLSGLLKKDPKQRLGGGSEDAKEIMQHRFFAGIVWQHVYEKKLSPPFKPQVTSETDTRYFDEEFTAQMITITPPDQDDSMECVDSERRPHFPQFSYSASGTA

On to `C=Cc1ccn2c(-c3ccccc3)c(-c3ccc(C4(N)CCC4)cc3)nc2c1` [Example 2-108, 1-[4-(3-phenyl-7-vinyl-imidazo[1,2-a]pyridin-2-yl)-phenyl]-cyclobutylamine], for which the IC50 came out at 3100 nM in experiment [1] (setting [4]); 10000 nM in experiment [2] (KPL4, 72h drug exposure); 1950 nM in experiment [3].

For the compound `NC1(c2ccc(-c3nc4cc(-c5ccncc5)ccn4c3-c3ccccc3)cc2)CCC1` [Example 2-109, 1-[4-(3-phenyl-7-pyridin-4-yl-imidazo[1,2-a]pyridin-2-yl)-phenyl]-cyclobutylamine], the IC50 in experiment [1] (setting [4]) was found to be 28 nM; in experiment [2] (KPL4, 72h drug exposure) it was 1500 nM; in experiment [3] it was 181 nM.

With `NC1(c2ccc(-c3nc4cc(-c5cc[nH]n5)ccn4c3-c3ccccc3)cc2)CCC1` [Example 2-112], the IC50 in experiment [1] (setting [4]) is 66 nM; in experiment [2] (KPL4, 72h drug exposure) it was 1700 nM; in experiment [3], 153 nM.

As to `Cn1cncc1-c1ccn2c(-c3ccccc3)c(-c3ccc(C4(N)CCC4)cc3)nc2c1` [Example 2-116], the half-maximal inhibitory concentration (IC50) was 63 nM in experiment [1] (setting [4]); 1600 nM in experiment [2] (KPL4, 72h drug exposure); 236 nM in experiment [3].

As to `NC1(c2ccc(-c3nc4cc(-c5nn[nH]n5)ccn4c3-c3ccccc3)cc2)CCC1` [Example 2-117], the IC50 in experiment [1] (setting [4]) was found to be 10000 nM; in experiment [2] (KPL4, 72h drug exposure) it was 10000 nM; in experiment [3], 26 nM.

With `CCOC(=O)c1ccn2c(-c3ccccc3)c(-c3ccc(C4(N)CCC4)cc3)nc2c1` [Example 2-119], the IC50 in experiment [1] (setting [4]) was determined as 725 nM; in experiment [2] (KPL4, 72h drug exposure), 4200 nM; in experiment [3] it was 86 nM.

Turning to `NC1(c2ccc(-c3nc4cc(C(=O)O)ccn4c3-c3ccccc3)cc2)CCC1` [Example 2-120], the IC50 in experiment [1] (setting [4]) stood at 8120 nM; in experiment [2] (KPL4, 72h drug exposure), 10000 nM; in experiment [3], 550 nM.

With `CNC(=O)c1ccn2c(-c3ccccc3)c(-c3ccc(C4(N)CCC4)cc3)nc2c1` [Example 2-122], the IC50 is 46 nM in experiment [1] (setting [4]); 1200 nM in experiment [2] (KPL4, 72h drug exposure); 409 nM in experiment [3].

Take `COC(=O)/C=C/c1ccn2c(-c3ccccc3)c(-c3ccc(C4(N)CCC4)cc3)nc2c1` [Example 2-123]: the concentration for half-maximal inhibition (IC50) in experiment [1] (setting [4]) was 268 nM; in experiment [2] (KPL4, 72h drug exposure), 2400 nM; in experiment [3] it was 345 nM.

Turning to `NC1(c2ccc(-c3nc4ccc(-c5cc[nH]n5)cn4c3-c3ccccc3)cc2)CCC1` [Example 2-131], the IC50 in experiment [1] (setting [4]) was found to be 88 nM; in experiment [2] (KPL4, 72h drug exposure), 1700 nM; in experiment [3], 171 nM.

`NC1(c2ccc(-c3nc4ccc(-c5nn[nH]n5)cn4c3-c3ccccc3)cc2)CCC1` [Example 2-135]: the IC50 in experiment [1] (setting [4]) worked out at 9810 nM; in experiment [2] (KPL4, 72h drug exposure) it was 10000 nM; in experiment [3], 74 nM.

`NC1(c2ccc(-c3nc4ccc(-c5ccncc5)cn4c3-c3ccccc3)cc2)CCC1` [Example 2-136]: the IC50 in experiment [1] (setting [4]) worked out at 150 nM; in experiment [2] (KPL4, 72h drug exposure) it was 1900 nM; in experiment [3], 533 nM.

Consider `NC1(c2ccc(-c3nc4ccc(-c5cccnc5)cn4c3-c3ccccc3)cc2)CCC1` [Example 2-137], for which the IC50 worked out at 149 nM in experiment [1] (setting [4]); 1700 nM in experiment [2] (KPL4, 72h drug exposure); 541 nM in experiment [3].

On to `NC1(c2ccc(-c3nc4ccc(-c5ccccn5)cn4c3-c3ccccc3)cc2)CCC1` [Example 2-138], for which the IC50 came to 541 nM in experiment [1] (setting [4]); 2400 nM in experiment [2] (KPL4, 72h drug exposure); 530 nM in experiment [3].

As to `NC1(c2ccc(-c3nc4ccc(Br)cn4c3-c3ccccc3)cc2)CCC1` [Example 2-139], the IC50 in experiment [1] (KPL4, 2 h) was 181 nM; in experiment [2] (KPL4, 72h drug exposure), 2000 nM; in experiment [3], 44 nM.

Consider `COC(=O)/C=C/c1ccc2nc(-c3ccc(C4(N)CCC4)cc3)c(-c3ccccc3)n2c1` [Example 2-141], for which the half-inhibitory concentration (IC50) in experiment [1] (setting [4]) was 361 nM; in experiment [2] (72h drug exposure), 5300 nM; in experiment [3] it was 196 nM.

Regarding `NC(=O)/C=C/c1ccc2nc(-c3ccc(C4(N)CCC4)cc3)c(-c3ccccc3)n2c1` [Example 2-142], the IC50 was found to be 114 nM in experiment [1] (setting [4]); 2600 nM in experiment [2] (KPL4, 72h drug exposure); 347 nM in experiment [3].

Turning to `Cn1cc(-c2ccn3c(-c4ccccc4)c(-c4ccc(C5(N)CCC5)cc4)nc3c2)cn1` [Example 2-150], the IC50 in experiment [1] (setting [4]) was 66 nM; in experiment [2] (KPL4, 72h drug exposure), 1700 nM; in experiment [3] it was 558 nM.

For `NCCOc1ccn2c(-c3ccccc3)c(-c3ccc(C4(N)CCC4)cc3)nc2n1` [Example 4-0, 1-{4-[7-(2-amino-ethoxy)-3-phenyl-imidazo[1,2-a]pyrimidin-2-yl]-phenyl}-cyclobutylamine], the IC50 came out at 1460 nM in experiment [1] (setting [4]); 4600 nM in experiment [2] (KPL4, 72h drug exposure); 548 nM in experiment [3].

Take `NC1(c2ccc(-c3nc4ccc(O)cn4c3-c3ccccc3)cc2)CCC1` [Example 5-0, 2-[4-(1-amino-cyclobutyl)-phenyl]-3-phenyl-imidazo[1,2-a]pyridin-6-ol]: the half-inhibitory concentration (IC50) in experiment [1] (setting [4]) was 103 nM; in experiment [2] (KPL4, 72h drug exposure), 3200 nM; in experiment [3] it was 303 nM.

In the case of `NC1(c2ccc(-c3nc4c(O)cccn4c3-c3ccccc3)cc2)CCC1` [Example 5-1, 2-[4-(1-amino-cyclobutyl)-phenyl]-3-phenyl-imidazo[1,2-a]pyridin-8-ol], the IC50 in experiment [1] (setting [4]) came out at 3480 nM; in experiment [2] (KPL4, 72h drug exposure) it was 10000 nM; in experiment [3], 590 nM.

Consider `C#Cc1ccn2c(-c3ccccc3)c(-c3ccc(C4(N)CCC4)cc3)nc2c1` [Example 7-0, 1-[4-(7-ethynyl-3-phenyl-imidazo[1,2-a]pyridin-2-yl)-phenyl]-cyclobutylamine], for which the IC50 in experiment [1] (setting [4]) came out at 1770 nM; in experiment [2] (KPL4, 72h drug exposure), 2400 nM; in experiment [3] it was 1660 nM.

As for `NC(=O)CCc1ccn2c(-c3ccccc3)c(-c3ccc(C4(N)CCC4)cc3)nc2c1` [Example 8-0, 3-{2-[4-(1-amino-cyclobutyl)-phenyl]-3-phenyl-imidazo[1,2-a]pyridin-7-yl}-propionamide], the IC50 in experiment [1] (setting [4]) was found to be 1270 nM; in experiment [2] (KPL4, 72h drug exposure), 10000 nM; in experiment [3] it was 12700 nM.

With `COC(=O)COc1ccn2c(-c3ccccc3)c(-c3ccc(C4(N)CCC4)cc3)nc2c1` [Example 9-0, {2-[4-(1-amino-cyclobutyl)-phenyl]-3-phenyl-imidazo[1,2-a]pyridin-7-yloxy}-acetic acid methyl ester], the IC50 in experiment [1] (setting [4]) is 923 nM; in experiment [2] (KPL4, 72h drug exposure), 2500 nM; in experiment [3], 158 nM.

Regarding `NC(=O)COc1ccn2c(-c3ccccc3)c(-c3ccc(C4(N)CCC4)cc3)nc2c1` [Example 9-1], the IC50 in experiment [1] (setting [4]) amounted to 90 nM; in experiment [2] (KPL4, 72h drug exposure), 1700 nM; in experiment [3], 397 nM.

Turning to `CN(C)C(=O)COc1ccn2c(-c3ccccc3)c(-c3ccc(C4(N)CCC4)cc3)nc2c1` [Example 9-2], the 50% inhibitory concentration (IC50) is 25 nM in experiment [1] (setting [4]); 900 nM in experiment [2] (KPL4, 72h drug exposure); 258 nM in experiment [3].

Regarding `COC(=O)COc1ccc2nc(-c3ccc(C4(N)CCC4)cc3)c(-c3ccccc3)n2c1` [Example 9-4], the half-inhibitory concentration (IC50) in experiment [1] (setting [4]) came out at 6470 nM; in experiment [2] (KPL4, 72h drug exposure), 3100 nM; in experiment [3], 179 nM.

Consider `N#CCOc1ccc2nc(-c3ccc(C4(N)CCC4)cc3)c(-c3ccccc3)n2c1` [Example 9-5], for which the IC50 in experiment [1] (setting [4]) stood at 51 nM; in experiment [2] (KPL4, 72h drug exposure), 2200 nM; in experiment [3] it was 96 nM.

Turning to `NC1(c2ccc(-c3nc4cc(O)ccn4c3-c3ccccc3)cc2)CCC1` [Example 10-0, 2-[4-(1-amino-cyclobutyl)-phenyl]-3-phenyl-imidazo[1,2-a]pyridin-7-ol], the IC50 in experiment [1] (setting [4]) turned out to be 308 nM; in experiment [2] (KPL4, 72h drug exposure) it was 7900 nM; in experiment [3], 1270 nM.
